# Source: patent publication US11241385B2, “Topical composition and method for treating and preventing atopic dermatitis and infections related to bacteria biofilm” (Johnson & Johnson Consumer Inc., priority 2017, dated 2022)
# Assays:
# [1] = tested on: Staphylococcus aureus biofilms; assay: Biofilm growth inhibition, wells method (inhibition halos); assay type: cell-based; conditions: S. Aureus
# Experimental: (§1) 1.3.3 Biofilm Growth Inhibition, Wells Method.
# (§2) Protocol disclosed by Hui Zhang was adapted as follow: • a—100 μL of a bacterial strains culture (DO580=0.5) is spread on a LB culture plate. • b—5 mm diameter wells are created with a punch in the gel surface of the culture plate. Each well is attributed to one formulation, the same formulation throughout the test. • c—50 μL of tested formulation is injected per well. • d—24 hours incubation at 37° C. • e—Wells are emptied from the formulations. • f—Growth inhibition halos are measured. • g—Repeat from step c to obtain data over several days (8 days in the present case).
# (§3) Tests were conducted on biofilms according to the methodology disclosed on paragraph 1.3.3 (Wells). A 10% solution of Triton X-100 (Aldrich) was submitted to the same test, results after 2 days were used as references.
# (§4) Inhibition halos were measured and compared to the inhibition halo obtained for the Triton X-100 solution after 2 days. Inhibition halo differences are expressed in %. Over 100% the inhibition is higher than what is observed for Triton at 2 days; under 100% the inhibition is lower than what is observed for Triton at 2 days. Inhibition was measured at 2 days and 8 days.
# [2] = tested on: Staphylococcus Epidermidis biofilms; assay: as above; assay type: cell-based; conditions: S. Epidermidis
# Experimental: as §1, §2, §3, §4
# [3] = tested on: Staphylococcus aureus biofilms; assay: Biofilm growth, crystal violet method; assay type: cell-based, Staphylococcus Aureus MFP03; conditions: S. aureus, absorbance 550 nm
# Experimental: 1.3.2 Biofilm Growth, Crystal Violet Method
# Experiments on biofilm growth were performed according to the protocol disclosed in G. A. O'Toole, Microtiter Dish Biofilm Formation Assay, J Vis Exp. 2011; (47): 2437. The protocol disclosed by G. A. O'Toole teaches the assay on Pseudomonas aeruginosa, it was adapted to Staphylococcus Aureus MFP03 and Staphylococcus Epidermis MFP04.
# Two conditions were studied: • The effect of the emulsions on biofilms in formation: the emulsions are added to the medium from the beginning of the bacterial growth. • The effect of emulsions on established biofilms: the emulsions are added to the bacteria after a first 24-hour incubation that allowed the development of the biofilm.
# The protocol taught by G. A. O'Toole is as follows:
# 1. Grow a culture of the wild-type Pseudomonas aeruginosa or mutant strain overnight in a rich medium (i.e. LB)
# 2. […] For quantitative assays, we typically use 4-8 replicate wells for each treatment. […] Quantifying the Biofilm 1. […] Quantify absorbance in a plate reader at 550 nm using 30% acetic acid in water as the blank. For the conditions of biofilms in formation: emulsions at 10% (w/w) are added to the medium, and after 24 h of incubation, the optical density is measured. […] Optical density is then measured. Results are expressed in percentage of absorbance relative to the control sample, which is the biofilm itself. […]
substance,measurement,setting,value
Triton X-100,"Growth inhibition % (halo), relative to Triton X-100 at 2 days",[1]; 2 days,100%
same,"Growth inhibition % (halo), relative to Triton X-100 at 2 days",[1]; 8 days,198.5%
same,"Growth inhibition % (halo), relative to Triton X-100 at 2 days",[2]; 2 days,100%
same,"Growth inhibition % (halo), relative to Triton X-100 at 2 days",[2]; 8 days,231%
same,"Absorbance percentage relative to the control (the biofilm itself), established biofilm",[3]; after 24 h biofilm growth medium replaced for 4 hours by emulsion,177%
same,"Absorbance percentage relative to the control (the biofilm itself), biofilm in formation","[3]; emulsion at 10% (w/w) in medium from start, 24 h incubation",27%
